This test addresses T1, LXRβ (Homo sapiens, UniProt P55055).
T1 construct: Co-transfection expression plasmids, comprising full-length LXRα (pCMX-h LXRα or LXRβ (pCMX-hLXRβ)); expressed in transfected cells; host or cells: CV-1 African green monkey kidney cells, transient transfection with pCMX-hLXRβ
T1 sequence (P55055 1-460): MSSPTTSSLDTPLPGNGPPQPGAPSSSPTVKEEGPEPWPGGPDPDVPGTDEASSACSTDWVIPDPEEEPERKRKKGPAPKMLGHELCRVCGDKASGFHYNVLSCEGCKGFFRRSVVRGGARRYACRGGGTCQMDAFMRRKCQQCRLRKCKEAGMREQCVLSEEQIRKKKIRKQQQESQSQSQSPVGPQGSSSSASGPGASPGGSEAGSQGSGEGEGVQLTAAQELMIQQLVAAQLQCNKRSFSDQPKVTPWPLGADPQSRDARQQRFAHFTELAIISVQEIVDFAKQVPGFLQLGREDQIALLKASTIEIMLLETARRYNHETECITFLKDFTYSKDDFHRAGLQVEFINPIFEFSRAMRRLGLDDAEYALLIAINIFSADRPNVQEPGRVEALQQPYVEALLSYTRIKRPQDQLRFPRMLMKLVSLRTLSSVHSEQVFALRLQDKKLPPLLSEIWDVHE
T1 sequence (P19793 1-462 partner): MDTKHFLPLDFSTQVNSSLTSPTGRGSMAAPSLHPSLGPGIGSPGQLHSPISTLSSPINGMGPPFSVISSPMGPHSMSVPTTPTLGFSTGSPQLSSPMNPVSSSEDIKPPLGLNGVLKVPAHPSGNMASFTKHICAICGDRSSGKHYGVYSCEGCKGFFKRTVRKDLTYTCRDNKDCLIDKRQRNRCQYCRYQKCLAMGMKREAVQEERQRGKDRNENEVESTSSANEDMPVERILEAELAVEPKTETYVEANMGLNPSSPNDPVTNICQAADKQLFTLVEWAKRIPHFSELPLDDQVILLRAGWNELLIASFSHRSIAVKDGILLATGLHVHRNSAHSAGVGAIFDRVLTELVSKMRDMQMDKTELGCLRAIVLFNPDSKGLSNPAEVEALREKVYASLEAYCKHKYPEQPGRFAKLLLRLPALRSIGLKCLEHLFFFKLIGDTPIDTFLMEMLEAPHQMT
As to the kind of experiment: LXR/LXRE co-transfection assay (luciferase reporter) in CV-1 cells, LXRβ. It counts as cell-based. The note with it: for EC50: CV-1 cells transfected with pCMX-hLXRβ and LXREx1-Tk-Luciferase, 20 hours incubation, read-out: LXRbeta agonism EC50; for Emax: CV-1 cells, relative to maximum response of high control N-(3-((4-fluorophenyl)-(naphthalene-2-sulfonyl)amino)propyl)-2,2-dimethylpropionamide, read-out: LXRbeta % EFFICACY
In a few lines: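 CV-1 cells transiently co-transfected with full-length human LXRβ, LXRE-Tk-luciferase reporter and β-galactosidase control, then exposed to compound (≤0.5% DMSO) for 20 h at 37 °C before luminescence read. EC50 from 10-point, half-log dose curves; efficacy relative to the sulfonamide high control, means of 2–3 experiments.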
Background: Reporter assays use an easily measured gene product as a stand-in for the process of interest.

In general, EC50 refers to the midpoint of the concentration-response curve.

Structures are written as SMILES.

With `Cn1nc(C(F)(F)C(=O)NC(C)(C)CO)cc1-c1ccc(-c2cc(F)c(CO)c(S(C)(=O)=O)c2)cc1-n1nncc1-c1ccc(OC(F)(F)F)cc1` [Example 27, 2,2-difluoro-2-(5-(3′-fluoro-4′-(hydroxymethyl)-5′-(methylsulfonyl)-3-(5-(4-(trifluoromethoxy)phenyl)-1H-1,2,3-triazol-1-yl)-[1,1′-biphenyl]-4-yl)-1-methyl-1H-pyrazol-3-yl)-N-(1-hydroxy-2-methylpropan-2-yl)acetamide], the 50% effective concentration (EC50) came to 1570 nM and the Emax was 111%.

Consider `Cc1nc(-c2ccc(OC(F)F)nc2)c(-c2cc(-c3cccc(S(C)(=O)=O)c3)ccc2-n2ccc(C(F)(F)F)n2)o1` [Example 353, 4-(6-(difluoromethoxy)pyridin-3-yl)-2-methyl-5-(3′-(methylsulfonyl)-4-(3-(trifluoromethyl)-1H-pyrazol-1-yl)biphenyl-3-yl)oxazole], for which the EC50 came out at 23 nM and the Emax came out at 93%.

For the compound `Cn1nc(C(F)(F)C#N)cc1-c1ccc(-c2cccc(S(C)(=O)=O)c2)cc1-n1nncc1-c1ccc(OC(F)(F)F)cc1` [Example 30, 2,2-difluoro-2-(1-methyl-5-(3′-(methylsulfonyl)-3-(5-(4-(trifluoromethoxy)phenyl)-1H-1,2,3-triazol-1-yl)-[1,1′-biphenyl]-4-yl)-1H-pyrazol-3-yl)acetonitrile], the EC50 worked out at 1090 nM and the Emax came to 15%.

Consider `COc1ncc(-c2nc(C)oc2-c2cc(-c3cccc(S(C)(=O)=O)c3)ccc2-n2cc(Cl)c(C(F)(F)F)n2)cn1` [Example 427, 5-(4-(4-chloro-3-(trifluoromethyl)-1H-pyrazol-1-yl)-3′-(methylsulfonyl)-[1,1′-biphenyl]-3-yl)-4-(2-methoxypyrimidin-5-yl)-2-methyloxazole], for which the EC50 is 94 nM and the Emax was 58%.

With `Cc1nc(-c2ccc(Cl)cc2Cl)c(-c2cc(-c3cccc(S(C)(=O)=O)c3)ccc2-n2cc(Cl)c(C(F)(F)F)n2)o1` [Example 423, 5-(4-(4-chloro-3-(trifluoromethyl)-1H-pyrazol-1-yl)-3′-(methylsulfonyl)-[1,1′-biphenyl]-3-yl)-4-(2,4-dichlorophenyl)-2-methyloxazole], the EC50 came to 60 nM and the Emax came out at 78%.

Consider `Cc1nc(-c2ccc(OC(F)(F)F)cc2)c(-c2cc(-c3cccc(S(N)(=O)=O)c3)ccc2-c2cc(C(F)(F)F)nn2C)o1` [Example 126, 4′-(1-methyl-3-(trifluoromethyl)-1H-pyrazol-5-yl)-3′-(2-methyl-4-(4-(trifluoromethoxy)phenyl)oxazol-5-yl)-[1,1′-biphenyl]-3-sulfonamide], for which the EC50 was determined as 299 nM and the Emax was 85%.

With `Cn1nc(C(F)(F)F)cc1-c1ccc(-c2cc(F)c(CO)c(S(C)(=O)=O)c2)cc1-n1nncc1-c1ccc(OC(F)(F)F)cc1` [Example 15, (3-fluoro-4′-(1-methyl-3-(trifluoromethyl)-1H-pyrazol-5-yl)-5-(methylsulfonyl)-3′-(5-(4-(trifluoromethoxy)phenyl)-1H-1,2,3-triazol-1-yl)biphenyl-4-yl)methanol], the EC50 was determined as 11 nM and the Emax turned out to be 95%.

Turning to `Cc1nc(-c2ccc(OC(F)F)c(F)c2)c(-c2cc(-c3cccc(S(C)(=O)=O)c3)ccc2-n2cc(Cl)c(C(F)(F)F)n2)o1` [Example 433], the EC50 amounted to 50 nM and the Emax was found to be 83%.

Take `Cc1nc(-c2ccc(OC(F)(F)F)cc2)c(-c2cc(-c3cc(F)c(CO)c(S(C)(=O)=O)c3)ccc2-n2nc(C(F)(F)F)cc2C)o1` [Example 332, (3-fluoro-4′-(5-methyl-3-(trifluoromethyl)-1H-pyrazol-1-yl)-3′-(2-methyl-4-(4-(trifluoromethoxy)phenyl)oxazol-5-yl)-5-(methylsulfonyl)biphenyl-4-yl)methanol]: the EC50 stood at 35 nM and the Emax is 70%.

On to `Cc1nc(-c2cc(-c3cccc(S(C)(=O)=O)c3)ccc2-n2nc(C(F)(F)F)cc2C)c(-c2ccc(OC(F)F)cc2)o1` [Example 383, 5-(4-(difluoromethoxy)phenyl)-2-methyl-4-(4-(5-methyl-3-(trifluoromethyl)-1H-pyrazol-1-yl)-3′-(methylsulfonyl)biphenyl-3-yl)oxazole], for which the EC50 stood at 18 nM and the Emax came out at 76%.

Regarding `Cc1nc(-c2ccc(OC(F)F)cc2Cl)c(-c2cc(-c3cc(F)c(CO)c(S(C)(=O)=O)c3)ccc2-n2cc(Cl)c(C(F)(F)F)n2)o1` [Example 432, (4′-(4-chloro-3-(trifluoromethyl)-1H-pyrazol-1-yl)-3′-(4-(2-chloro-4-(difluoromethoxy)phenyl)-2-methyloxazol-5-yl)-3-fluoro-5-(methylsulfonyl)-[1,1′-biphenyl]-4-yl)methanol], the EC50 was found to be 19 nM and the Emax was 79%.

For `Cc1nc(-c2ccc(OC(F)(F)F)cc2)c(-c2cc(-c3cccc(S(C)(=O)=O)c3)ccc2-c2cc(C(F)(F)C(N)=O)nn2C)o1` [Example 128], the concentration giving a half-maximal response (EC50) was found to be 159 nM and the Emax was 44%.

Take `Cc1nc(-c2ccc(OC(F)(F)F)cc2)c(-c2cc(-c3cnc(CO)c(S(C)(=O)=O)c3)ccc2-n2cc(Cl)c(C(F)(F)F)n2)o1` [Example 314, (5-(4-(4-chloro-3-(trifluoromethyl)-1H-pyrazol-1-yl)-3-(2-methyl-4-(4-(trifluoromethoxy)phenyl)oxazol-5-yl)phenyl)-3-(methylsulfonyl)pyridin-2-yl)methanol]: the EC50 is 11 nM and the Emax turned out to be 68%.

As to `Cc1nc(-c2cc(-c3cc(F)c(CO)c(S(C)(=O)=O)c3)ccc2-c2cc(C(C)(C)C(N)=O)nn2C)c(-c2ccc3c(c2)OC(F)(F)O3)o1` [Example 63, 2-(5-(3-(5-(2,2-difluorobenzo[d][1,3]dioxol-5-yl)-2-methyloxazol-4-yl)-3′-fluoro-4′-(hydroxymethyl)-5′-(methylsulfonyl)biphenyl-4-yl)-1-methyl-1H-pyrazol-3-yl)-2-methylpropanamide], the EC50 came out at 55 nM and the Emax stood at 33%.

Turning to `Cc1cc(C(F)(F)F)nn1-c1ccc(-c2cc(Cl)c(CO)c(S(C)(=O)=O)c2)cc1-n1nncc1-c1ccc(OC(F)(F)F)cc1` [Example 302, [3-chloro-5-(methylsulfonyl)-4′-[5-methyl-3-(trifluoromethyl)-1H-pyrazol-1-yl]-3′-(5-{4-[(trifluoromethyl)oxy]phenyl}-1H-1,2,3-triazol-1-yl)biphenyl-4-yl]methanol], the EC50 was found to be 227 nM and the Emax came out at 93%.

Consider `Cn1nc(C(F)(F)F)cc1-c1ccc(-c2cccc(C(C)(C)C(N)=O)c2)cc1-n1nncc1-c1ccc(OC(F)(F)F)cc1` [Example 12], for which the EC50 came out at 74 nM and the Emax is 81%.

As for `Cc1nc(-c2ccc(OC(F)(F)F)cc2)c(-c2cc(-c3cc(Cl)c(CO)c(S(C)(=O)=O)c3)ccc2-c2cc(C(F)(F)F)nn2C)o1` [Example 125, (3-chloro-4′-(1-methyl-3-(trifluoromethyl)-1H-pyrazol-5-yl)-3′-(2-methyl-4-(4-(trifluoromethoxy)phenyl)oxazol-5-yl)-5-(methylsulfonyl)-[1,1′-biphenyl]-4-yl)methanol], the EC50 was determined as 179 nM and the Emax turned out to be 88%.

In the case of `Cc1nc(-c2ccc(OC(F)F)c(F)c2)c(-c2cc(-c3cccc(S(C)(=O)=O)c3)ccc2-c2cc(C(F)(F)C(N)=O)nn2C)o1` [Example 72, 2-(5-(3-(4-(4-(difluoromethoxy)-3-fluorophenyl)-2-methyloxazol-5-yl)-3′-(methylsulfonyl)biphenyl-4-yl)-1-methyl-1H-pyrazol-3-yl)-2,2-difluoroacetamide], the EC50 was determined as 73 nM and the Emax was 60%.

Consider `Cc1nc(-c2ccc3c(c2)OC(F)(F)O3)c(-c2cc(-c3cc(F)c(CO)c(S(C)(=O)=O)c3)ccc2-c2cc(C(N)=O)nn2C)o1` [Example 56, 5-(3-(4-(2,2-difluorobenzo[d][1,3]dioxol-5-yl)-2-methyloxazol-5-yl)-3′-fluoro-4′-(hydroxymethyl)-5′-(methylsulfonyl)biphenyl-4-yl)-1-methyl-1H-pyrazole-3-carboxamide], for which the EC50 was 1100 nM and the Emax came to 35%.

(Values after patent US9751869B2, “LXR modulators” (BRISTOL-MYERS SQUIBB COMPANY, priority 2013, dated 2017).)
